Data: patent publication US8410152B2 (Max-Planck-Gesellschaft zur Forderung der Wissenschaften e. …, priority 2006, dated 2013)

Assays:
tau construct K19 = tau construct K19 (Homo sapiens, UniProt P10636); test: Thioflavine S (ThS) assay for aggregation of tau; type: biochemical; details: 10 μM tau construct K19, 2.5 μM heparin, ThS fluorescence; for DC50: read-out: DC50; for IC50: over night at 37° C., read-out: ID50 (the source's name)
Method: Thioflavine S (ThS) Assay for aggregation of tau: 10 μM of the tau construct K19 were incubated with compounds in a concentration range from 1 nM up to 200 μM in the presence of 2.5 μM heparin in 50 mM NH4Ac buffer over night at 37° C. After addition of 20 μM ThS the signal was measured at 521 nm (emission) at an excitation wavelength of 440 nm. The results of this assay are presented in the IC50 column and DC50 column of Table 1 below.

uninduced N2A cells = type: cell-based; details: cell death as percent of LDH released into medium vs total LDH, compound 10 μM
In short: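 Compound at 10 μM final was added to uninduced N2A cells. LDH activity was read at 492 nm. Cell death was expressed as percent LDH released into medium relative to total LDH after full cell lysis.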

N2a/K18ΔK280 cells = test: Tau aggregation and inhibition assay in cells (ThS staining); type: cell-based; details: N2a/K18ΔK280 cells, 5 days; for inhibition at 10 µM: 120 h, compound 10 μM with doxycyclin, ThS-positive cells scored, read-out: Inhibition in cells
Method: Selection of an N2a, Tet-On, G418-resistant cell line: N2a cells were cotransfected with both the pUHD172-1 plasmid (encoding the rtTA, obtained from H. Bujard, Heidelberg) and pEU-1 plasmid (encoding G418 resistance, a derivative of pRc/CMV, Invitrogen) (ratio 20:1; 1 μg/well of 6-well plates) using the DOTAP transfection reagent (Roche, Basel, CH). The cells were cultured in Eagle's Minimum Essential Medium (MEM) supplemented with 10% defined fetal bovine serum and subjected to G418 (600 μg/ml) and selection. The cells were fed with fresh media every 4 days for 3-4 weeks when single colonies appeared. Clones were tested for the induction level by transient transfection of pUHG 16-3 plasmid and the induction of β-galactosidase was measured.
Generation of inducible Tet-On cell lines: The DNA fragments encoding the appropriate tau constructs (K18WT, K18ΔK280, K18/ΔK280/PP) were inserted into the bidirectional vector pBI-5 between ClaI and SalI restriction sites (pBI-5 is an unpublished derivative of pBI-2, Baron et al., 1995). The pBI-5/K18-derived plasmids with pX343 (plasmid encoding the hygromycin resistance) were used for cotransfection of N2a/Tet-On, G418-resistant cells with the aid of DOTAP (20:1 plasmid ratio; 1 μg/well of 6-well plates). The cells were seeded at 4×10^5 cells per well. On the following day cells were transferred to 100-mm dishes and selected with 100 μg/ml of hygromycin and 600 μg/ml of G418. Clonal cell lines were screened for the inducible expression of K18 derivatives by measuring luciferase activity with the luciferase assay and immunofluorescence for tau protein with the polyclonal pan-tau antibody K9JA.
Induction of K18-derivatives in Tet-On N2a cells: The inducible N2a/K18-derivatives cells were cultured in MEM medium supplemented with 10% fetal calf serum, 2 mM glutamine and 0.1% nonessential amino acids. The expression of K18 constructs was induced by adding 1 μg doxycyclin (Dox) per 1 ml medium. The induction was continued for 7-11 days, the medium was changed 3 times (always complemented with doxycyclin). For tau solubility assays the cells were collected by pelleting during centrifugation at 1000×g for 5 min. The levels and solubility of tau K18/ΔK280 were determined following Greenberg and Davies (1990). The cells were homogenized (DIAX900, Heidolph, Schwabach, Germany) in 10 vol (w/v) of buffer consisting of 10 mM Tris-HCl (pH 7.4), 0.8 M NaCl, 1 mM EGTA, and 10% sucrose. The homogenate was spun for 20 min at 20000×g, and the supernatant was retained. The pellet was re-homogenized in 5 vol of homogenization buffer and re-centrifuged. Both supernatants were combined, brought to 1% N-laurylsarkosinate (w/v) and incubated for 1 hr at room temperature while shaking, followed by centrifugation at 100 000×g for 1 hr. The sarkosyl-insoluble pellets were resuspended in 50 mM Tris-HCl (pH 7.4), 0.5 ml per 1 g of starting material. The supernatant and sarkosyl-insoluble pellet samples were analyzed by Western blotting. The amount of material loaded for supernatant and sarkosyl-insoluble pellet represented about 0.5% and 15% of the total material present in the supernatant and pellet respectively (the ratio between supernatant and sarkosyl insoluble pellet was always 1:30). For quantification of tau levels in each fraction, the Western blots were probed with pan-tau antibody K9JA and analyzed by densitometry (LAS 3000 and AIDA software, Raytest, Straubenhardt, Germany).
Quantitation of tau aggregation in cells by Thioflavin S (ThS) staining: Tet-On inducible undifferentiated N2a cells were treated with 1 μg/ml doxycyclin for 5, 7 or 9 days in a culture dish. After that the cells were trypsinized and transferred to coverslips and incubated overnight. The cells on the coverslips were fixed with 4% paraformaldehyde in PBS for 15 min, then permeabilized with 80% MeOH for 6 min at −20° C., and incubated with 0.1% Thioflavin S for 5 min and washed three times in ethanol (50%). […]

tau construct K18 = tau construct K18 (Homo sapiens, UniProt P10636); test: STD-NMR determination of dissociation constant; type: binding; details: STD-NMR titration data for proton I, 10 μM soluble K18, PBS/D2O, 295 K; read-out: KD of K18-BSc3094 complex
Sequence of tau construct K18 (P10636 with tags, fused parts or gaps isoform P10636-8 limits assumed): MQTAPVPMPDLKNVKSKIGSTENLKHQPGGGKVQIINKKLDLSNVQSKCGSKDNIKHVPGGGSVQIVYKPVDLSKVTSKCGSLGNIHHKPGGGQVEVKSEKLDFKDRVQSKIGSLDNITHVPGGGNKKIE
Method: STD-NMR: All STD NMR experiments were made in 3 mm Match® tubes in a 700 MHz spectrometer with cryogenic probe head at 295 K. The quantity of protein was kept small by the small diameter of the sample tubes. The spectra were measured with a spectral width of 11.0208 ppm and 32k data points with application of the WATERGATE water suppression (w5-sequence). The suppression of the protein resonances was reached by a spin lock pulse with a length of 15 ms and a attenuation of 11 dB. We used a pulse program in which the presaturation was accomplished alternating after each scan for the on and off resonance experiment at the selected frequencies. Thus artefacts are prevented during the difference formation due to in homogeneities. As point of irradiation for the on resonance experiments we selected 540 Hz (0.77 ppm). As point of irradiating for the off resonance experiments 40,000 Hz (57.1 ppm) was selected. The saturation duration in all experiments was 4 seconds, the attenuation of the saturation power 45 dB. 2044 scans were collected per experiment. After phase correction the FID was multiplied by an exponential function to improve the signal to noise ratio, which caused a line broadening of 1 Hz.
For the determination of the dissociation constant a sample with 10 μM soluble K18 and 80 μM DTT-d6 in 200 μL PBS/D2O was prepared. […]

Sequence of tau construct K19 (P10636 with tags, fused parts or gaps isoform P10636-2 limits assumed): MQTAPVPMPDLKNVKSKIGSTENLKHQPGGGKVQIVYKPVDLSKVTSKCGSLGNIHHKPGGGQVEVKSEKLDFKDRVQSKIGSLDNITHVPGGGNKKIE

Row | Compound | DC50 (tau construct K19) | IC50 (tau construct K19) | LDH (uninduced N2A cells) | inhibition at 10 µM (N2a/K18ΔK280 cells) | Kd (tau construct K18) | Inhibition in cells (result in words: cytotoxicity) (N2a/K18ΔK280 cells; compound 10 μM)
1 | O=C(NNc1nc(-c2ccc([N+](=O)[O-])cc2)cs1)c1ccc2[nH]cnc2c1 [Comp. 8, N′-[4-(4-Nitrophenyl)-1,3-thiazol-2-yl]-1H-benzimidazole-5-carbohydrazide] | 0.7 µM | 1.6 µM | 5.2% | 82.2% | 62 ± 12 µM | –
2 | O=C(NNc1nc2c(s1)Cc1ccccc1-2)c1ccc(C(F)(F)F)cc1 [Comp. 66, N′-8H-indeno[1,2-d][1,3]thiazol-2-yl-4-(trifluoromethyl)benzohydrazide] | 2.7 µM | 4.1 µM | −4.6% | 53.9% | – | –
3 | N#Cc1ccc(-c2csc(NNC(=O)c3cccc(F)c3)n2)cc1 [Comp. 67, N′-[4-(4-cyanophenyl)-1,3-thiazol-2-yl]-3-fluorobenzohydrazide] | 28.7 µM | 19.7 µM | 19.8% | – | – | Cytotoxic at 5 d
4 | O=C(NNc1nc(-c2ccc(Cl)cc2)cs1)C1CCCCC1 [Comp. 68, N′-[4-(4-chlorophenyl)-1,3-thiazol-2-yl]cyclohexanecarbohydrazide] | 162 µM | 69.1 µM | −2.8% | 46.4% | – | –
